Results reported in patent publication EP2730585B1, “PROTEIN-P[…] OBTAINED FROM TISSUES OF EMBRYOS OF HOOFED ANIMALS , USE ON SKIN TISSUE, METHOD FOR PRODUCING SAID COMPLEX AND PHARMACEUTICAL COMPOSITION” (Aktsionernoe Obschestvo "Pharm-Sintez", priority 2011, dated 2012).

Tested on: mice marrow cells
Settings: 20 mg/kg
Description: The study objective was detection and quantitative estimate of cytogenetic (mutagenic) activity of pharmacologic substances in polychromatophil cells (PCC) of mammal marrow. The method is based on microscopic recording of cells with micronuclei.
The experiments were performed to 2 months old male and female F1 (CBAx C57BI6/J) cross-breed mice weighing 18-20 g. Each group included 6 animals. The animals were kept at 12 hours light pattern with free food and water access. Animal experiments for assessment of mutagenic properties of the protein/polypeptide complex with single and five-time dosing were conducted in compliance with official records. Three sessions of experiments were carried out with corresponding controls: therapeutic dose was tested on male animals with a single introduction; subtoxic dose was tested on male animals with a single introduction; therapeutic dose was tested on male animals with a single introduction; subtoxic dose was tested on male animals and female with five-time introduction.
Taking into account that the possible presumed method for usage of the PPC at a clinic was intracutaneous, subcutaneous introduction, and external application, in this study subcutaneous introduction of the substance to mice was used. The PPC complex dosing for assessment of mutagenic activity was calculated based on the maximum human recommended daily therapeutic dose (TD). Subcutaneous introduction of PPC was recommended in the amount of 0.2 to 6 ml at 0.1 mg/ml concentration. In this case, a human therapeutic dose (TD), including a child's dose, can be 0.08 mg/kg/daily. In order to calculate an experiment dosing for mice, a conversion factor is recommended that takes into account a human or animal body surface area to weight ratio. In our study, it was 8.33. Therefore, the mice TD was approximately 8.33 x human TD (0.7 mg/kg).
As a subtoxic dose, 10mg/kg, the maximum possible in this experiment conditions dosing was used, as the substance was presented in 0.1 mg/ml concentration, and the normally used amount of substance for mice is 0.1 ml per 10 g. […]

O=P1(N(CCCl)CCCl)NCCCO1 (stereo not drawn) [Cyclophosphamide, cyclophosphamide]
polychromatophilic to normochromatic erythrocytes ratio (compared to control P<0.005): found to shift to the latter
frequency of micronucleus cells (male mice): 62.1%
increased frequency of micronucleus cells (male mice, against reference, P<0.001): 19.6 times
